According to publication PMC10778976, “BAY-3827 and SBI-0206965: Potent AMPK Inhibitors That Paradoxically Increase Thr172 Phosphorylation” (International Journal of Molecular Sciences, 2023):
In brackets after ≈: the same amount, converted by molar mass.

Assays:
[1] = system: endogenous AMPK from HEK-293 cells; assay: Activation of dephosphorylated immunoprecipitated AMPK by the LKB1 complex; assay type: biochemical, human; conditions: increasing concentrations; SBI-0206965 effect reversed above 1 µM
Protocol: AMPK was immunoprecipitated from HEK-293 cell lysate (2.5 mg protein) using a mixture of anti-α1 and -α2 antibodies. After extensive washing, it was incubated in a shaking incubator at 30 °C for 20 min in Hepes buffer with 50 mM MgCl2 and sufficient PPM1A to yield about 90% inactivation (total volume of 250 µL). The reaction was terminated by adding 1 mL of IP buffer and, after additional washing in the same buffer, aliquots equivalent to 80 µg of lysate protein were incubated in a shaking incubator at 30 °C for 10 min in Hepes buffer with […] and 5 mM MgCl2, with or without a limiting amount of LKB1:STRADα:MO25α complex (0.5 µg) in the presence or absence of 200 µM AMP or the indicated concentration of BAY-3827 or SBI-0206965 (total volume of 50 µL). The reaction was terminated by adding 1 mL of IP buffer and, after additional washing in the same buffer and a final wash into Hepes buffer, AMPK activity was determined using kinase assays as above.

Aqueous solubility = assay type: physicochemical; conditions: aqueous medium (not further specified)
[2] = Pharmacokinetic study in mice, blood levels by LC:MS; assay type: in vivo, NOD-SCID mice; conditions: 10 mg/kg oral gavage after 1-aminobenzotriazole 50 mg/kg
Protocol: All experiments with live animals were approved in advance by the Ethical Review Committee of the University of Dundee in accordance with the UK Animal (Scientific Procedures) Act 1986. Two female mice of the NOD-SCID strain were obtained from Charles River Laboratories, UK. The animals were maintained under a 12 h light/12 h dark cycle. The animals were allowed ad libitum access to food (RM1; Special Diet Services, UK) and water. Temperature and relative humidity were maintained between 20 and 24 °C and 45 and 65%, respectively. All animals received a minimum of 14 days acclimatization prior to the start of the study. 1-Aminobenzotriazole was dissolved on the day of dosing in Milli-Q ultrapure water at a concentration of 10 mg/mL and dosed via oral gavage at a dose level of 50 mg/kg. BAY-3827 was suspended in 0.5% hydroxypropylmethylcellulose (Methocel K15M Premium USP/EP; Colorcon) in water, at a concentration of 2 mg/mL. The BAY-3827 formulation was dosed via oral gavage at a dose level of 10 mg/kg, 30 min after the administration of 1-aminobenzotriazole. The animals were observed regularly after dose administration. […]
A Waters Acquity Performance Liquid Chromatography coupled to a Waters Xevo TQ-S tandem mass spectrometer was used for the quantification of BAY-3827, using donepezil hydrochloride as an internal standard. […]
Calibration samples, QC samples, blanks, double blanks, and study samples were extracted through protein precipitation. […] The resultant supernatant from the calibration samples, QCs, double blanks, and blanks (200 µL) and study samples (80 µL) was then transferred to HPLC glass vials containing Milli-Q water (100 µL or 40 µL, respectively) to reduce the solvent strength ready for UHPLC/MS analysis.
The sample concentrations were determined via a linear regression (weighting: 1/x) on the calibration samples using Waters TargetLynx application (v4.2). […] The lower limit of quantification (LLoQ) was determined as the analyte response with ≥three times the analyte response of the blanks (plasma with internal standard but not analyte). […]

[3] = system: human AMPK (α2β1γ1 complex); conditions: low ATP concentration (10 µM); read-out: IC50, inhibition of human AMPK (α2β1γ1 complex); cited from earlier work
[4] = set-up: method as in ref 32 = [32]; 32. Lemos C. Schulze A. Overview for BAY-3827, an Inhibitor of PRKAA1, RPS6KA1 Available online: https://www.sgc-ffm.uni-frankfurt.de/chemProbes#!specificprobeoverview/BAY-3827 (accessed on 14 Novembe); conditions: mouse liver microsomes; cited from earlier work
[5] = system: RSK (RSK1-4, also known as RPS6KA1-4); conditions: selectivity screen against 331 kinases, 1 µM, 10 µM ATP; cited from earlier work

solubility (Aqueous solubility)	blood concentration ([2]; after 4–8 h)	peak blood concentration (mean) ([2]; at 60 min)	concentration at 8 h ([2]; female, NOD-SCID, mouse, whole blood, after 8 h)	Structure (SMILES)	effect on activation of AMPK by LKB1 [1]	IC50 [3]	in vitro clearance (CL) [4]	oral bio-availability (Fmax) [4]	inhibition of all four isoforms of RSK [5]
0.3 µg/mL (≈ 0.64 µM)	20 to 30 nM	90 nM and ≈ 90 nM	20 nM	CCc1ccccc1C(=O)Nc1n[nH]c2c(C)c(F)c(C3C(C#N)=C(C)N(C)C(C)=C3C#N)cc12 [BAY-3827]	little or no effect	1.4 nM	83 mL/min/kg	7%	potently inhibit
				CNC(=O)c1ccccc1Oc1nc(Nc2cc(OC)c(OC)c(OC)c2)ncc1Br [SBI-0206965]	progressively promoted activation by LKB1				
